Assay results: article PMC5011342, “A high throughput drug screening assay to identify compounds that promote oligodendrocyte differentiation using acutely dissociated and purified oligodendrocyte precursor cells” (BMC Research Notes, 2016)
Like-named read-outs stand apart in the source and are kept apart here.

Columns and labels:
[1] = tested on: acutely dissociated and purified rat OPCs; test: Acute OL differentiation assay (MBP expression/cell, immunofluorescent image quantification); format: cell-based; settings: for activation at 0.08 µM: test compound at 0.08 uM, read-out: 0.08 uM (% Quet)
In short: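 Oligodendrocyte precursor cells were enriched from P6-P7 Sprague–Dawley rat brains by immunopanning (RAN-2 and GalC depletion, O4 selection), plated at 5000 cells/well in serum-free, mitogen-free differentiation media on PDL/laminin 96-well view plates, centrifuged at 200×g, and pre-incubated 1–2 h before test compounds were added in quadruplicate. On DIV4, cells were fixed, stained for MBP and DAPI, imaged automatically, and MBP expression per cell was quantified.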

[2] = tested on: expanded OPCs; test: cells; settings: for viability at 0.1 µM / viability at 1 µM / viability at 10 µM: Rattus norvegicus, 72 h
In short: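 Expanded OPCs seeded at 10,000 cells/well in differentiation media, then exposed to NCC library compounds at 10, 1 and 0.1 µM (quadruplicate, 0.1% DMSO) for three days. Viability read as alamarBlue fluorescence (560/590 nm) after 4 h at 37 °C; tunicamycin 5 ng/ml served as toxicity control.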

[3] = Rattus norvegicus, read-out: 2 uM (% Quet)
[4] = Rattus norvegicus, read-out: 10 uM (% Quet)
[5] = Rattus norvegicus, 2 uM test compound, relative to quetiapine, sheet "All OLga data", read-out: OL differentiation, 2 uM (% Quet)
[6] = Rattus norvegicus, 10 uM test compound, relative to quetiapine, sheet "All OLga data", read-out: OL differentiation, 10 uM (% Quet)
[7] = Rattus norvegicus, test compound at 2 uM, MBP expression relative to quetiapine, NCC library screen, sheet "All OLga data", read-out: 2 uM (% Quet)
[8] = Rattus norvegicus, test compound at 10 uM, MBP expression relative to quetiapine, NCC library screen, sheet "All OLga data", read-out: 10 uM (% Quet)
[9] = read-out: 0.1 µM (% DMSO), alamarBlue viability of expanded OPCs, compound at 0.1 µM, sheet All Tox data
[10] = read-out: 1 µM (% DMSO), alamarBlue viability of expanded OPCs, compound at 1 µM, sheet All Tox data
[11] = read-out: 10 µM (% DMSO), alamarBlue viability of expanded OPCs, compound at 10 µM, sheet All Tox data
[12] = alamarBlue viability of expanded OPCs, compound at 0.1 µM, relative to DMSO control
[13] = alamarBlue viability of expanded OPCs, compound at 1 µM, relative to DMSO control
[14] = alamarBlue viability of expanded OPCs, compound at 10 µM, relative to DMSO control
[15] = Rattus norvegicus, NCC library screen, sheet "All OLga data", relative to quetiapine
[16] = Rattus norvegicus, test compound at 0.4 uM, NCC library screen, sheet "All OLga data", relative to quetiapine, read-out: 0.4 uM (% Quet)
[17] = read-out: 0.1 µM (% DMSO), alamarBlue viability, NCC library compound at 0.1 µM, sheet "All Tox data"
[18] = read-out: 1 µM (% DMSO), alamarBlue viability, NCC library compound at 1 µM, sheet "All Tox data"
[19] = read-out: 10 µM (% DMSO), alamarBlue viability, NCC library compound at 10 µM, sheet "All Tox data"
[20] = Rattus norvegicus, 0.4 uM test compound, relative to quetiapine, sheet "All OLga data", read-out: OL differentiation, 0.4 uM (% Quet)
[21] = Rattus norvegicus, test compound at 2 uM, NCC library screen, sheet "All OLga data", relative to quetiapine, read-out: 2 uM (% Quet)
[22] = test compound at 2 uM, MBP expression relative to quetiapine, NCC library screen, sheet "All OLga data"
[23] = test compound at 10 uM, MBP expression relative to quetiapine, NCC library screen, sheet "All OLga data"
[24] = Rattus norvegicus, test compound at 10 uM, NCC library screen, sheet "All OLga data", relative to quetiapine, read-out: 10 uM (% Quet)

SMILES | 0.1 µM (% DMSO) [2, 12] | 1 µM (% DMSO) [2, 13] | 10 µM (% DMSO) [2, 14] | viability at 0.1 µM [2, 17] | viability at 1 µM [2, 18] | viability at 10 µM [2, 19] | activation at 2 µM [1, 21] | activation at 10 µM [1, 24] | further results
O=P1(N(CCCl)CCCl)NCCCO1 (stereo not shown) [Cyclophosphamide] |  |  |  |  |  |  |  |  | activation at 2 µM [1, 3]: 16.5%; activation at 10 µM [1, 4]: 5.1%; 0.1 µM (% DMSO) ([2]; rat): 90.6 % DMSO; 1 µM (% DMSO) ([2]; rat): 100.6 % DMSO; 10 µM (% DMSO) ([2]; rat): 97.0 % DMSO
N[C@@H]1CON=C1O [Cycloserine] | 89.7 % DMSO | 97.0 % DMSO | 89.5 % DMSO |  |  |  |  |  | activation at 2 µM [1, 5]: 4.1%; activation at 10 µM [1, 6]: 13.9%; activation at 2 µM [1, 7]: -13.8%; activation at 10 µM [1, 8]: -23%; viability at 0.1 µM [2, 9]: 82.2%; viability at 1 µM [2, 10]: 87%; viability at 10 µM [2, 11]: 97.4%
CN1CCC(=C2c3ccccc3C=Cc3ccccc32)CC1 [Cyproheptadine] |  |  |  | 71.2% | 49.3% | 25.2% |  |  | activation at 0.08 µM [1, 15]: -0.6%; activation at 0.4 µM [1, 16]: 10.3%
Nc1ccn([C@@H]2O[C@H](CO)[C@@H](O)[C@@H]2O)c(=O)n1 [Cytarabine] |  |  |  |  |  |  |  |  | activation at 0.4 µM [1, 20]: -18.7%; activation at 2 µM [1, 5]: 5.8%; viability at 0.1 µM [2, 9]: 60.2%; viability at 1 µM [2, 10]: 56.2%; viability at 10 µM [2, 11]: 43.1%
C[N+]1(C)CCN(c2ccccc2)CC1 [DMPP, dimethylphenylpiperazinium, reference compound] |  |  |  | 101% | 89.5% | 111% |  |  | activation at 2 µM [1, 5]: 40.6%; activation at 10 µM [1, 6]: 54.3%; EC50 ([1]; Rattus norvegicus, average EC50 for induction of OL differentiation from independent biological replicates, eight concentrations): 13 µM; hit in OL differentiation assay, MRF-TMC ([1]; ● = confirmed hit in this paper's assay): ●
C#C[C@]1(O)CC[C@H]2[C@@H]3CCC4=Cc5oncc5C[C@]4(C)[C@H]3CC[C@@]21C [Danazol] | 95.3 % DMSO | 92.4 % DMSO | 47.1 % DMSO |  |  |  | 24.1% |  | activation at 0.4 µM [1, 16]: 9.4%
O.O.O=C1N=C([O-])CN1/N=C/c1ccc(-c2ccc([N+](=O)[O-])cc2)o1.[Na+] [Dantrolene sodium salt dihydrate] | 93.5 % DMSO | 100.3 % DMSO | 91.7 % DMSO |  |  |  |  |  | 2 uM (% Quet) [1, 22]: -16.0 % Quet; 10 uM (% Quet) [1, 23]: -55.0 % Quet
Nc1ccc(S(=O)(=O)c2ccc(N)cc2)cc1 [Dapsone] | 101.9 % DMSO | 96.3 % DMSO | 99.0 % DMSO |  |  |  | -13.2% | -22.2% | 
Cc1c(O)c(=O)ccn1C [Deferiprone] |  |  |  |  |  |  |  |  | activation at 2 µM [1, 5]: 6.6%; activation at 10 µM [1, 6]: 37.1%; viability at 0.1 µM [2, 9]: 91.3%; viability at 1 µM [2, 10]: 90.1%; viability at 10 µM [2, 11]: 84.8%
C[C@H](CCC(=O)O)[C@H]1CC[C@H]2[C@@H]3C(=O)C[C@@H]4CC(=O)CC[C@]4(C)[C@H]3CC(=O)[C@]12C [Dehydrocholic Acid] |  |  |  | 101% | 106% | 109% | -12.3% | -5.3% | 
C[C@]12CC[C@H](O)CC1=CC[C@@H]1[C@@H]2CC[C@]2(C)C(=O)CC[C@@H]12 [Dehydroepiandrosterone] |  |  |  | 92% | 87.5% | 83.1% | -23.8% | -57.9% | 
CN(C)[C@@H]1C(O)=C(C(N)=O)C(=O)[C@@]2(O)C(O)=C3C(=O)c4c(O)ccc(Cl)c4[C@@H](O)[C@H]3C[C@@H]12 [Demeclocycline] |  |  |  | 96.3% | 90.6% | 88.4% | -7.5% | -21% | 
CNCCCN1c2ccccc2CCc2ccccc21 [Desipramine] | 75.5 % DMSO | 43.8 % DMSO | 16.4 % DMSO |  |  |  |  |  | activation at 0.08 µM ([1]; Rattus norvegicus, MBP expression relative to quetiapine, NCC library screen, sheet "All OLga data"): 8.9%; activation at 0.4 µM ([1]; Rattus norvegicus, test compound at 0.4 uM, MBP expression relative to quetiapine, NCC library screen, sheet "All OLga data", read-out: 0.4 uM (% Quet)): -5.3%
Clc1ccc2c(c1)CCc1cccnc1C2=C1CCNCC1 [Desloratadine] |  |  |  | 61% | 29% | 10.5% |  |  | activation at 0.08 µM [1, 15]: -28%; activation at 0.4 µM [1, 16]: -84.8%
C[C@@H]1C[C@H]2[C@@H]3CCC4=CC(=O)C=C[C@]4(C)[C@@]3(F)[C@@H](O)C[C@]2(C)[C@H]1C(=O)CO [Desoximetasone] |  |  |  | 111% | 114% | 111% | -17.9% | -33% | 
C[C@@H]1C[C@H]2[C@@H]3CCC4=CC(=O)C=C[C@]4(C)[C@@]3(F)[C@@H](O)C[C@]2(C)[C@@]1(O)C(=O)CO [Dexamethasone] | 108.6 % DMSO | 109.4 % DMSO | 109.8 % DMSO |  |  |  |  |  | activation at 2 µM [1, 7]: 1.1%; activation at 10 µM [1, 8]: -24.5%
C[C@@H]1C[C@H]2[C@@H]3CCC4=CC(=O)C=C[C@]4(C)[C@@]3(F)[C@@H](O)C[C@]2(C)[C@@]1(O)C(=O)CO [Dexamethazone] | 115.8 % DMSO | 108.1 % DMSO | 98.4 % DMSO |  |  |  |  |  | 2 uM (% Quet) [1, 22]: -1.3 % Quet; 10 uM (% Quet) [1, 23]: -8.3 % Quet
COc1ccc2c(c1)[C@]13CCCC[C@@H]1[C@H](C2)N(C)CC3 [Dextromethorphan] |  |  |  |  |  |  |  |  | activation at 0.4 µM [1, 20]: 10.5%; activation at 2 µM [1, 5]: 44.5%; viability at 0.1 µM [2, 9]: 82.6%; viability at 1 µM [2, 10]: 86.9%; viability at 10 µM [2, 11]: 59.6%
CN1C(=O)CN=C(c2ccccc2)c2cc(Cl)ccc21 [Diazepam] |  |  |  |  |  |  |  |  | activation at 2 µM [1, 3]: 3.8%; activation at 10 µM [1, 4]: -14.1%; viability at 0.1 µM ([2]; read-out: 0.1 µM (% DMSO)): 92.5%; viability at 1 µM ([2]; read-out: 1 µM (% DMSO)): 97.2%; viability at 10 µM ([2]; read-out: 10 µM (% DMSO)): 102%
CC1=NS(=O)(=O)c2cc(Cl)ccc2N1 [Diazoxide] |  |  |  | 98.9% | 86.5% | 82.6% | -1.9% | -7.1% | 
O=C(O)C(Cl)Cl [Dichloroacetic Acid] |  |  |  | 99.2% | 83.6% | 83.5% | 0.66% | 13.7% | 
